Our source for the MIC values is ChEMBL document CHEMBL1139006, “Synthesis and in vitro antibiotic activity of 16-membered 9-O-arylalkyloxime macrolides” (2006).

Values after ≈ are worked out from the molar mass of the structure shown. A value given as a limit tells only on which side of the number the result lay.

Holding throughout (type): functional
The test system of test [1] is Enterococcus faecalis. In words: Antibacterial activity against Enterococcus faecalis ATCC 51575.
Test [2] deals with Staphylococcus aureus. In words: Antibacterial activity against macrolide resistant Staphylococcus aureus ATCC BAA-39.
In test [3] the test system is Staphylococcus aureus. In words: Antibacterial activity against Staphylococcus aureus ATCC 6538p.
Test [4] concerns Streptococcus pneumoniae. Put plainly: Antibacterial activity against Streptococcus pneumoniae ATCC 49619.
Test [5] relates to Staphylococcus epidermidis. In words: Antibacterial activity against Staphylococcus epidermidis ATCC 12228.
Test [6] relates to Staphylococcus aureus. Put plainly: Antibacterial activity against macrolide resistant Staphylococcus aureus ATCC 33591.
Test [7] relates to Staphylococcus aureus. Put plainly: Antibacterial activity against macrolide resistant Staphylococcus aureus ATCC 141541.
The subject of test [8] is Streptococcus pneumoniae. In words: Antibacterial activity against Streptococcus pneumoniae ATCC 700671.
In test [9] the test system is Streptococcus pneumoniae. Put plainly: Antibacterial activity against macrolide resistant Streptococcus pneumoniae ATCC 700906.
Test [10] concerns Staphylococcus aureus. In words: Antibacterial activity against macrolide resistant Staphylococcus aureus ATCC BAA-44.
Test [11] deals with Streptococcus pneumoniae. Put plainly: Antibacterial activity against macrolide resistant Streptococcus pneumoniae ATCC 700677.
Test [12] relates to Streptococcus pneumoniae. Put plainly: Antibacterial activity against macrolide resistant Streptococcus pneumoniae ATCC 700905.
Test [13] deals with Streptococcus pneumoniae. In words: Antibacterial activity against macrolide resistant Streptococcus pneumoniae ATCC 700676.
Test [14] relates to Staphylococcus aureus. Put plainly: Antibacterial activity against Staphylococcus aureus ATCC 29213.
Test [15] concerns Streptococcus pneumoniae. In words: Antibacterial activity against Streptococcus pneumoniae ATCC 6301.

Usually MIC stands for the lowest concentration that inhibits growth of the organism. Low values mean inhibition by little substance, high ones a need for much substance. Turning to `CC[C@H]1OC(=O)C[C@@H](O)[C@H](C)[C@@H](O[C@@H]2O[C@H](C)[C@@H](O)[C@H](N(C)C)[C@H]2O)[C@@H](CC=O)C[C@@H](C)C(=N/OCCCCOc2ccc3ncccc3c2)/C=C/C(C)=C/C1CO` (stereo not given in full), the minimal inhibitory concentration (MIC) is over 12.5 mg/L in test [1]; over 12.5 mg/L in test [2]; 0.2 mg/L (≈ 0.246 µM) in [3]; 0.01 mg/L (≈ 0.0123 µM) in test [4]; 0.2 mg/L (≈ 0.246 µM) in [5]; over 12.5 mg/L in [6]. Further, the minimal inhibitory concentration (MIC) was 0.78 mg/L (≈ 0.961 µM) in test [7]; 0.025 mg/L (≈ 0.0308 µM) in test [8]; over 12.5 mg/L in test [9]; over 12.5 mg/L in test [10]; 0.39 mg/L (≈ 0.48 µM) in test [11]; 0.025 mg/L (≈ 0.0308 µM) in test [12]. Besides, the MIC amounted to 0.025 mg/L (≈ 0.0308 µM) in test [13], 0.78 mg/L (≈ 0.961 µM) in test [14] and 0.025 mg/L (≈ 0.0308 µM) in [15].

Take `CC[C@H]1OC(=O)C[C@@H](O)[C@H](C)[C@@H](O[C@@H]2O[C@H](C)[C@@H](O)[C@H](N(C)C)[C@H]2O)[C@@H](CC=O)C[C@@H](C)C(=N/OCc2ccccc2)/C=C/C(C)=C/C1CO` (stereo not given in full): the minimal inhibitory concentration (MIC) in test [1] was over 12.5 mg/L; in test [2] it was over 12.5 mg/L; in [3] it was 0.39 mg/L (≈ 0.555 µM); in test [4], 0.2 mg/L (≈ 0.285 µM); in [5], 0.78 mg/L (≈ 1.11 µM); in [6], over 12.5 mg/L. For the same compound, the minimum inhibitory concentration (MIC) was 1.56 mg/L (≈ 2.22 µM) in [7]; 0.2 mg/L (≈ 0.285 µM) in [8]; over 12.5 mg/L in test [9]; over 12.5 mg/L in [10]; 1.56 mg/L (≈ 2.22 µM) in test [11]; 0.2 mg/L (≈ 0.285 µM) in [12]. For the same compound, the MIC in test [13] is 0.025 mg/L (≈ 0.0356 µM); in [14], 1.56 mg/L (≈ 2.22 µM); in [15] it was 0.025 mg/L (≈ 0.0356 µM).

For `CC[C@H]1OC(=O)C[C@@H](O)[C@H](C)[C@@H](O[C@@H]2O[C@H](C)[C@@H](O)[C@H](N(C)C)[C@H]2O)[C@@H](CC=O)C[C@@H](C)C(=N/OC/C=C\c2cnc3ccccc3c2)/C=C/C(C)=C/C1CO` (stereo not given in full), the MIC in test [1] is over 12.5 mg/L; in test [2], over 12.5 mg/L; in test [3] it was 0.2 mg/L (≈ 0.256 µM); in test [4], 0.025 mg/L (≈ 0.0321 µM); in test [5] it was 0.39 mg/L (≈ 0.5 µM); in [6] it was over 12.5 mg/L. Also, the minimum inhibitory concentration (MIC) in test [7] is 0.78 mg/L (≈ 1 µM); in test [8], 0.025 mg/L (≈ 0.0321 µM); in test [9] it was over 12.5 mg/L; in test [10], over 12.5 mg/L; in test [11], over 12.5 mg/L; in [12], 0.049 mg/L (≈ 0.0628 µM). Moreover, the values for the MIC in test [13], in test [14] and in test [15] were 0.049 mg/L (≈ 0.0628 µM), 0.78 mg/L (≈ 1 µM) and 0.025 mg/L (≈ 0.0321 µM), respectively.

With `CC[C@H]1OC(=O)C[C@@H](O)[C@H](C)[C@@H](O[C@@H]2O[C@H](C)[C@@H](O)[C@H](N(C)C)[C@H]2O)[C@@H](CC=O)C[C@@H](C)C(=N/OCC(=O)N2CCN(c3ccccc3)CC2)/C=C/C(C)=C/C1CO` (stereo not given in full), the MIC in test [1] was over 12.5 mg/L; in [2], over 12.5 mg/L; in [3], 0.78 mg/L (≈ 0.957 µM); in test [4], 0.01 mg/L (≈ 0.0123 µM); in test [5] it was 0.2 mg/L (≈ 0.245 µM); in test [6] it was over 12.5 mg/L. Besides, the MIC is 1.56 mg/L (≈ 1.91 µM) in [7]; 0.025 mg/L (≈ 0.0307 µM) in [8]; over 12.5 mg/L in test [9]; over 12.5 mg/L in test [10]; 6.25 mg/L (≈ 7.67 µM) in test [11]; 0.2 mg/L (≈ 0.245 µM) in [12]. Also, the MIC is 0.39 mg/L (≈ 0.479 µM) in test [13], 1.56 mg/L (≈ 1.91 µM) in test [14] and 0.025 mg/L (≈ 0.0307 µM) in test [15].

For `CC[C@H]1OC(=O)C[C@@H](O)[C@H](C)[C@@H](O[C@@H]2O[C@H](C)[C@@H](O)[C@H](N(C)C)[C@H]2O)[C@@H](CC=O)C[C@@H](C)C(=N\OCC#Cc2cnc3ccccc3c2)/C=C/C(C)=C/C1CO` (stereo not given in full), the minimum inhibitory concentration (MIC) in test [1] is over 12.5 mg/L; in test [2], over 12.5 mg/L; in test [3], 0.098 mg/L (≈ 0.126 µM); in test [4] it was 0.049 mg/L (≈ 0.063 µM); in test [5], 0.2 mg/L (≈ 0.257 µM); in [6], over 12.5 mg/L. For the same compound, the MIC in test [7] is 0.78 mg/L (≈ 1 µM); in test [8], 0.049 mg/L (≈ 0.063 µM); in test [9] it was over 12.5 mg/L; in test [10], over 12.5 mg/L; in test [11], over 12.5 mg/L; in [12], 0.049 mg/L (≈ 0.063 µM). Besides, the results for the MIC in test [13], in [14] and in [15] were 0.049 mg/L (≈ 0.063 µM), 0.39 mg/L (≈ 0.501 µM) and 0.025 mg/L (≈ 0.0321 µM), respectively.

Regarding `CC[C@H]1OC(=O)C[C@@H](O)[C@H](C)[C@@H](O[C@@H]2O[C@H](C)[C@@H](O)[C@H](N(C)C)[C@H]2O)[C@@H](CC=O)C[C@@H](C)C(=N\OCCOc2ccccc2)/C=C/C(C)=C/C1CO` (stereo not given in full), the minimum inhibitory concentration (MIC) in [1] is over 12.5 mg/L; in [2], over 12.5 mg/L; in [3] it was 1.56 mg/L (≈ 2.13 µM); in test [4], 0.2 mg/L (≈ 0.273 µM); in [5] it was 1.56 mg/L (≈ 2.13 µM); in test [6], over 12.5 mg/L. Besides, the MIC in test [7] is 3.12 mg/L (≈ 4.26 µM); in test [8], 0.39 mg/L (≈ 0.532 µM); in test [9], over 12.5 mg/L; in test [10] it was over 12.5 mg/L; in test [11], 1.56 mg/L (≈ 2.13 µM); in test [12], 0.78 mg/L (≈ 1.06 µM). Moreover, the results for the MIC in test [13], in [14] and in test [15] were 0.2 mg/L (≈ 0.273 µM), 3.12 mg/L (≈ 4.26 µM) and 0.098 mg/L (≈ 0.134 µM), respectively.
